Assay results: patent US4308210A, “Nanaomycin B and therapeutic compositions containing same” (The Kitasato Institute, priority 1976, dated 1981)
In brackets after ≈: the same amount, converted by molar mass.

How the values were obtained:
Acute toxicity, LD50 = conditions: in vivo, ip; intra-penetrial injection into mouse
Source text: Accordingly, it can be said that nanaomycin B represents a new antibiotic which may be used as a medicament for human beings and animals.

[1] = Conversion of nanaomycin B into nanaomycin A depending on pH; assay type: physicochemical
Experimental: Nanaomycin B (200 mg) is dissolved in 60 ml of 0.1 N sodium hydroxide and the solution is allowed to stand for 10 minutes. After adjusting to pH 2.0 with 6 N hydrochloric acid, the product is extracted with ethyl acetate. The extract is evaporated and orange yellow needles are obtained from an ethanol solution of the product. The compound is identified as nanaomycin A by the melting point, IR spectrum and thin-layer chromatography.

Mycoplasma pneumonia = assay: Antimicrobial spectrum, MIC, PPLO agar; assay type: cell-based; conditions: 192 h, Eiken PPLO agar (pH 7.8, 8 days, 37° C.)
Experimental: E Eiken PPLO agar (pH 7.8, 8 days, 37° C.)
(§1) MIC Minimal inhibitory concentration

Trichophyton asteroides [2] = assay: Antifungal activity, agar dilution method; assay type: cell-based; conditions: Trichophyton, 96 h, potato agar, pH 6.4, 27° C., 4 days, read-out: Minimal Inhibitory Con.
Experimental: (§2) Minimal inhibitory concentration is assayed by agar dilution method
(§3) (potato agar, pH 6.4, 27° C., 4 days)

Aspergillus niger = assay: Antifungal activity, agar dilution method; assay type: cell-based; conditions: Aspergillus niger, 96 h, potato agar, pH 6.4, 27° C., 4 days, read-out: Minimal Inhibitory Con.
Experimental: as §2, §3

Microsporum gypseum = assay: Antifungal activity, agar dilution method; assay type: cell-based; conditions: Nannizzia gypsea, 96 h, potato agar, pH 6.4, 27° C., 4 days, read-out: Minimal Inhibitory Con.
Experimental: as §2, §3

Aspergillus fumigatus = assay: Antifungal activity, agar dilution method; assay type: cell-based; conditions: Aspergillus fumigatus, 96 h, potato agar, pH 6.4, 27° C., 4 days, read-out: Minimal Inhibitory Con.
Experimental: as §2, §3

Trichophyton rubrum = assay: Antifungal activity, agar dilution method; assay type: cell-based; conditions: Trichophyton rubrum, 96 h, potato agar, pH 6.4, 27° C., 4 days, read-out: Minimal Inhibitory Con.
Experimental: as §2, §3

Saccharomyces sake = assay: Antifungal activity, agar dilution method; assay type: cell-based; conditions: Saccharomyces, 96 h, potato agar, pH 6.4, 27° C., 4 days, read-out: Minimal Inhibitory Con.
Experimental: as §2, §3

Trichophyton ferrugineum [3] = assay: Antifungal activity, agar dilution method; assay type: cell-based; conditions: Microsporum ferrugineum, 96 h, potato agar, pH 6.4, 27° C., 4 days, read-out: Minimal Inhibitory Con.
Experimental: as §2, §3

Candida albicans = assay: Antifungal activity, agar dilution method; assay type: cell-based; conditions: Candida albicans, 96 h, potato agar, pH 6.4, 27° C., 4 days, read-out: Minimal Inhibitory Con.
Experimental: as §2, §3

[4] = tested on: Trichophyton interdigitale; assay: Antifungal activity, agar dilution method; assay type: cell-based; conditions: Trichophyton interdigitale, 96 h, potato agar, pH 6.4, 27° C., 4 days, read-out: Minimal Inhibitory Con.
Experimental: as §2, §3

Trichophyton schoenleini = assay: Antifungal activity, agar dilution method; assay type: cell-based; conditions: Trichophyton, 96 h, potato agar, pH 6.4, 27° C., 4 days, read-out: Minimal Inhibitory Con.
Experimental: as §2, §3

Trichophyton violaceum [5] = assay: Antifungal activity, agar dilution method; assay type: cell-based; conditions: Trichophyton violaceum, 96 h, potato agar, pH 6.4, 27° C., 4 days, read-out: Minimal Inhibitory Con.
Experimental: as §2, §3

[6] = tested on: Gram-positive bacteria such as, for example Staphylococcus aureus; assay: Growth inhibition of Gram-positive bacteria (text summary of Table 1); assay type: cell-based
Trichophyton violaceum [7] = assay: Antimicrobial spectrum, MIC, potato agar; assay type: cell-based; conditions: 96 h, potato agar (pH 6.4, 4 days, 27° C.)
Pseudomonas aeruginosa = assay: Antimicrobial spectrum, MIC, nutrient agar; assay type: cell-based; conditions: 48 h, nutrient agar (pH 7.0, 2 days, 37° C.)
[8] = tested on: Bacillus subtillis PCI 219; assay: Antimicrobial spectrum, MIC, nutrient agar; assay type: cell-based; conditions: PCI219, 48 h, nutrient agar (pH 7.0, 2 days, 37° C.)
[9] = tested on: Aspergillus fumigatus IAM 2612; assay: Antimicrobial spectrum, MIC, potato agar; assay type: cell-based; conditions: IAM2612, 96 h, potato agar (pH 6.4, 4 days, 27° C.)
Trichophyton ferrugineum [10] = assay: Antimicrobial spectrum, MIC, potato agar; assay type: cell-based; conditions: Microsporum ferrugineum, 96 h; potato agar (pH 6.4, 4 days, 27° C.)
[11] = Conversion of nanaomycin B into nanaomycin A in culture medium or living bodies
[12] = tested on: various fungi of some species belonging to the genus Trichophyton; assay: Growth inhibition of fungi of the genus Trichophyton (text summary of Table 1); assay type: cell-based
[13] = tested on: Escherichia coli NIHJ (JC-2); assay: Antimicrobial spectrum, MIC, nutrient agar; assay type: cell-based; conditions: 48 h, nutrient agar (pH 7.0, 2 days, 37° C.)
[14] = tested on: Klebsiella pneumoniae PCI 602; assay: Antimicrobial spectrum, MIC, nutrient agar; assay type: cell-based; conditions: PCI602, 48 h, nutrient agar (pH 7.0, 2 days, 37° C.)
Experimental: (§4) Medium N nutrient agar (pH 7.0, 2 days, 37° C.)
as §1

Escherichia coli NIHJ = assay: Antimicrobial spectrum, MIC, nutrient agar; assay type: cell-based; conditions: 48 h, nutrient agar (pH 7.0, 2 days, 37° C.)
Experimental: as §4, §1

Salmonella typhimurium = assay: Antimicrobial spectrum, MIC, nutrient agar; assay type: cell-based; conditions: Salmonella enterica, 48 h, nutrient agar (pH 7.0, 2 days, 37° C.)
Experimental: as §4, §1

Shigella flexneri = assay: Antimicrobial spectrum, MIC, nutrient agar; assay type: cell-based; conditions: 48 h, nutrient agar (pH 7.0, 2 days, 37° C.)
Experimental: as §4, §1

Mycobacterium smegmatis = assay: Antimicrobial spectrum, MIC, nutrient agar; assay type: cell-based; conditions: Mycolicibacterium smegmatis, 48 h; nutrient agar (pH 7.0, 2 days, 37° C.)
Experimental: as §4, §1

[15] = tested on: Trichophyton mentagrophytes; assay: Antimicrobial spectrum, MIC, potato agar; assay type: cell-based; conditions: 96 h, potato agar (pH 6.4, 4 days, 27° C.)
Trichophyton asteroides [16] = assay: Antimicrobial spectrum, MIC, potato agar; assay type: cell-based; conditions: 96 h, potato agar (pH 6.4, 4 days, 27° C.)
Trichophyton pedis 804 = assay: Antimicrobial spectrum, MIC, potato agar; assay type: cell-based; conditions: Trichophyton pedis, 804, 96 h; potato agar (pH 6.4, 4 days, 27° C.)
[17] = tested on: Staphylococcus aureus FDA 209P (JC-1); assay: Antimicrobial spectrum, MIC, nutrient agar; assay type: cell-based; conditions: FDA209P, 48 h, nutrient agar (pH 7.0, 2 days, 37° C.)
[18] = Activity of nanaomycin B itself; conditions: in words

## CC1OC(CC(=O)O)CC2C(=O)c3cccc(O)c3C(=O)C12O (stereo not drawn) [Nanaomycin B]
Acute toxicity, LD50
  LD50: 169 mg/kg
[1]; acidic or neutral condition
  conversion into nanaomycin A in an acidic or neutral condition: gradually converted
[1]; alkaline condition
  conversion into nanaomycin A in an alkaline condition: easily converted into nanaomycin A
Mycoplasma pneumonia
  MIC: 0.05 µg/mL (≈ 0.156 µM)
Trichophyton asteroides [2]
  MIC: 12.5 µg/mL (≈ 39 µM)
Aspergillus niger
  MIC: > 100 µg/mL
Microsporum gypseum
  MIC: 12.5 µg/mL (≈ 39 µM)
Aspergillus fumigatus
  MIC: 50 µg/mL (≈ 156 µM)
Trichophyton rubrum
  MIC: 6.3 µg/mL (≈ 19.7 µM)
Saccharomyces sake
  MIC: > 100 µg/mL
Trichophyton ferrugineum [3]
  MIC: 6.3 µg/mL (≈ 19.7 µM)
Candida albicans
  MIC: > 100 µg/mL
[4]
  MIC: 12.5 µg/mL (≈ 39 µM)
Trichophyton schoenleini
  MIC: 0.4 µg/mL (≈ 1.25 µM)
Trichophyton violaceum [5]
  MIC: 6.3 µg/mL (≈ 19.7 µM)
[6]; Staphylococcus aureus, summary of Table 1, read-out: growth inhibited at a concentration
  MIC: 2 to 8 µg/mL (≈ 6.24 to 25 µM)
[6]; in words
  activity on Gram-positive bacteria: active
Trichophyton violaceum [7]
  MIC: 3.1 µg/mL (≈ 9.68 µM)
Pseudomonas aeruginosa
  MIC: > 500 µg/mL
[8]
  MIC: 7.8 µg/mL (≈ 24.4 µM)
[9]
  MIC: > 100 µg/mL
Trichophyton ferrugineum [10]
  MIC: 12.5 µg/mL (≈ 39 µM)
[11]
  conversion into nanaomycin A in a culture medium or in living bodies: converted into nanaomycin A
[12]; Trichophyton, 96 h, summary of Table 1, read-out: growth inhibited at a concentration
  MIC: ≤ 25 µg/mL
[12]; in words
  activity on trycophyton: active
[13]
  MIC: 500 µg/mL (≈ 1560 µM)
[14]
  MIC: 31.3 µg/mL (≈ 97.7 µM)
Escherichia coli NIHJ
  MIC: 15.6 µg/mL (≈ 48.7 µM)
Salmonella typhimurium
  MIC: 62.5 µg/mL (≈ 195 µM)
Shigella flexneri
  MIC: 62.5 µg/mL (≈ 195 µM)
Mycobacterium smegmatis
  MIC: 125 µg/mL (≈ 390 µM)
[15]
  MIC: 25 µg/mL (≈ 78.1 µM)
Trichophyton asteroides [16]
  MIC: 12.5 µg/mL (≈ 39 µM)
Trichophyton pedis 804
  MIC: 3.1 µg/mL (≈ 9.68 µM)
[17]
  MIC: 2 µg/mL (≈ 6.24 µM)
[18]
  activity of nanaomycin B itself: no or little activity
